This note sets out measurements from US7056728B2, “Compositions and methods for use thereof in modifying the genomes of microorganisms” (priority 2000, dated 2006).

Each structure is given as a SMILES string.

For experiment [1], the system named is S. pneumoniae pAUL-A Tn4001 luxABCDE km^R. The experiment is described as follows: growth and colony formation of S. pneumoniae transformants in the presence of kanamycin. It is filed as cell-based, Streptococcus pneumoniae. Particulars: 10^3 CFUs plated on chocolate agar, increasing kanamycin 400 to 1000 μg/ml; approximately 1000 CFUs without kanamycin.
Experiment [2] deals with MRSA strain I6. The experiment is described as follows: antibiotic resistance of MRSA strain. It is filed as cell-based, S. aureus.
Experiment [3] has as its system S. pneumoniae A66.1 Xen 10. Also on record: species or system Streptococcus pneumoniae. Particulars: in vivo. As for the experimental part:
Thus, the strains HUSTMBIG, A66.1, EF3030 and 140301 were made bioluminescent and tested in both mouse lung and nasopharyngeal models. Briefly, exponential cultures of S. pneumoniae grown at 37° C. in BHI were pelleted and then resuspended in fresh BHI broth. Bacterial concentrations were estimated spectrophotometrically by absorbance at 600 nm and adjusted to approximately […] by dilution BHI. Cell numbers were verified by plating dilutions of inoculum onto BHI agar.
Pneumococci were introduced into the lungs of the mice by either direct intratracheal inoculation, or by intranasal administration. The animals were anesthetized with ketamine (100 mg/ml) and xylazine (20 mg/ml), mixed at a 4:1 ratio v/v just before use. The anesthesia mixture was injected intramuscularly into the right hamstring muscle at a dose of 100 mg ketamine/kg of body weight. After anesthesia was established, the mice were inoculated with approximately 10^6 CFU in a total volume of 20 μl, using a 25 ga. Ball-tipped gavage needle. Mice were held in vertical suspension for 10 minutes after inoculation to facilitate deep penetration of the inoculum. Alternatively, mice were infected intranasally with approximately 10^6 CFU by placing 20 μl of bacterial suspension on the nares and allowing the mice to inhale the inoculum. In the antibiotic studies, mice were treated with amoxicillin at 1 mg/kg or 5 mg/kg, given subcutaneously at t=0, 18, 24, and 42 hours post-infection.
Mice were imaged for a maximum of 5 min at a number of time points post-infection using an IVIS™ CCD camera (Xenogen Corporation, Alameda, Calif.). Total photon emission from selected and defined areas within the images of each mouse was quantified using the LivingImage™ software package (Xenogen Corporation, Alameda, Calif.). The photon signal from the thorax was quantified from the ventral image of each mouse.
Twelve mice were inoculated with approximately 10^6 CFU of S. pneumoniae A66.1 Xen 10. The mice were divided into three groups of four animals and two of these groups were treated with an amoxicillin regime at 1 or 5 mg/kg, the third group of animals remaining untreated as controls.
After the final imaging time point, mice were sacrificed and the infected lung tissue was surgically removed and weighed. Both lungs were homogenized together in 500 μl BHI in a loose Dounce homogenizer. The suspension was serially diluted in BHI and plated in duplicate onto BHI agar. Bacterial burden was estimated from the number of CFU/g of lung tissue. The bacterial load present in the nasal passage of the mice was obtained by washing approximately 0.25 ml of saline through the trachea and collecting the first 0.1 ml of nasal wash as it exited the nares, as described (Lipsitch et al. (2000) Vaccine 18:2895–2901; Wu et al. (1997) Microb. Pathog. 23:127–137).

Regarding `NC[C@H]1O[C@H](O[C@H]2[C@H](O)[C@@H](O[C@H]3O[C@H](CO)[C@@H](O)[C@H](N)[C@H]3O)[C@H](N)C[C@@H]2N)[C@H](O)[C@@H](O)[C@@H]1O` [kanamycin], in experiment [1], the “number of colonies (average)” value lay in the range of 56 to 35.
On to `O=C(N[C@H](CO)[C@H](O)c1ccc([N+](=O)[O-])cc1)C(Cl)Cl` [chloremphenicol], for which, in experiment [2], the “resistance of strain to antibiotics tested” value is “resistant to all the antibiotics tested except for chloremphenicol”.
Regarding `CC1(C)S[C@@H]2[C@H](NC(=O)[C@H](N)c3ccc(O)cc3)C(=O)N2[C@H]1C(=O)O` [amoxicillin], in experiment [3], the “appearance of treated mice” value was “appeared relatively healthy”, the “highest number of pneumococci isolated from a treated animal (lung tissue)” value stood at 300 CFU/g tissue and the “treated animals showing no bacteria present in lung tissue” value is “four of the eight”. In addition, in experiment [3] (sc, 1 mg/kg), the “animals with a bioluminescent signal” value is reported as “Three of the four”. Besides, the “animals with a significant bioluminescent signal” value in experiment [3] (sc, 5 mg/kg) is “None of the four”.
